What is called IC50 is the concentration needed to halve the response being measured. As a reminder, the pKi is −log10 of the Ki, conventionally taken in molar units. By melting point is commonly meant the temperature of the solid-liquid transition. What is called inhibition is the relative decrease from the control value, in per cent.

Series [1] has as its system alkaline phosphatase activity in T47D cells. The series can be described thus: Effects of progestins and antiprogestins on alkaline phosphatase activity in T47D cells (antagonist mode). Format: cell-based. Conditions: Homo sapiens, in the presence of 1 nM progesterone, read-out: T47D Alkaline Phosphatase Activity IC50 (nM) or % inhibition; for IC50: 24 h.
Series [2] deals with T1, progesterone receptor (PR) (Homo sapiens, UniProt P06401).
T1 construct: in live, intact (whole) cells using the human breast carcinoma T47D cell line; endogenous in cells; host or cells: T47D human breast carcinoma cells
T1 sequence (P06401 1-933): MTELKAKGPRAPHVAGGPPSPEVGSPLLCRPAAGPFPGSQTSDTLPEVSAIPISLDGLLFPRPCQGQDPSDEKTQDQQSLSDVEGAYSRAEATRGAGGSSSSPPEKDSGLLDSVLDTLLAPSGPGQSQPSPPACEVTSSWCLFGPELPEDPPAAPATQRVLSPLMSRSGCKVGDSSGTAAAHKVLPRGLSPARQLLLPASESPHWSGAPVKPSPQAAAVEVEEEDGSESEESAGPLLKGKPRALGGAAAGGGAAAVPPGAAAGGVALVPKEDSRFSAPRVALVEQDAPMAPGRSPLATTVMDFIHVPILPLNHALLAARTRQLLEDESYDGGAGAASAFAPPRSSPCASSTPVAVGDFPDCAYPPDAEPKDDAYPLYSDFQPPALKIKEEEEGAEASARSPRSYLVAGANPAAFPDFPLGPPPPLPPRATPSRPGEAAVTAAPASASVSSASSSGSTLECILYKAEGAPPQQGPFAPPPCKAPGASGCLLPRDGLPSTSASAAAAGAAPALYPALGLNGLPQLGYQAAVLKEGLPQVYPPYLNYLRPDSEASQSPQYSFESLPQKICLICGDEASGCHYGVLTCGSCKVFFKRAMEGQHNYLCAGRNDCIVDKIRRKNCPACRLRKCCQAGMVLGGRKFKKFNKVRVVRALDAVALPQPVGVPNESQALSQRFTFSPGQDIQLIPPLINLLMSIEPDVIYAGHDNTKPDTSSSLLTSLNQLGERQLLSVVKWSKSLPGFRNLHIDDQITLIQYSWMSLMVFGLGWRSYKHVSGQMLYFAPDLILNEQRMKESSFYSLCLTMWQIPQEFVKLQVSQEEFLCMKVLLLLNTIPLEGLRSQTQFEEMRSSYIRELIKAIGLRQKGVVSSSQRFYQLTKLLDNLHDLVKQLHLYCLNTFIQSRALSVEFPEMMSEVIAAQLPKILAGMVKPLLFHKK
The series can be described thus: Progesterone receptor whole cell competition binding assay using T47D cells. Conditions: intact T47D cells, 3 nM 3H-progesterone, 3 h at 37° C. The procedure: (2) Progesterone Receptor Whole Cell Competition Binding Assay Using T47D Cells
PURPOSE: To evaluate the progesterone receptor (PR) binding activity of progestins or antiprogestins in live, intact (whole) cells using the human breast carcinoma T47D cell line and ^3H-progesterone as the labeled ligand.
Culture Medium: • 5% RC: phenol red free DMEM:F12 (1:1) (GIBCO, BRL) supplemented with 5% (v/v) charcoal stripped fetal bovine serum (not heat-inactivated), 100 U/mL penicillin, 100 μg/mL streptomycin, and 2 mM the GlutaMax™ reagent (GIBCO, BRL). • 10% RC: Same as above supplemented with 10% (v/v) FBS. • ^3H-Progesterone: Perkin Elmer Life Science, cat# NET-381 (typically around 102 Ci/mmol)
T47D cells were maintained in 10% RC media at 37° C. in a 5% CO2/humidified atmosphere and were split twice weekly for proper response. Cells were plated in 10% RC the day before binding assay at 50,000 cells per well in the white, clear bottom plates purchased through VWR or Perkin Elmer.
Cells plated the day prior to the assay in white clear bottom plates were used. A master compound plate was set up containing control and test compounds at 20× final desired concentration for the competition binding. A typical dose range of 20× concentrations were (in nM); 200,000; 20,000; 6000; 2000; 600; 200; 20; and 2. Final concentrations were (in nM); 10,000; 1000; 300; 100; 30; 10; 1; 0.1. Control compounds were typically run 10-fold lower than this and include a 0, or vehicle, control well. A stock of 60 nM ^3H-progesterone (20×) were also prepared at a volume needed of 10 μL per well.
Media on cells were replaced with 180 μL of 5% RC. Ten microliters (10 μL) of 60 nM ^3H-progesterone (for final concentration of 3 nM) was added immediately, followed by 10 μL of 20× test or control compounds. Compounds were incubated for 3 h at 37° C. (A time course study found no difference between 2 and 4 h incubation.)
Following incubation, media was carefully removed and cells were washed 3× with 200 μL 5% RC each wash. Fifty microliters of liquid scintillation cocktail was added and the plates were shaken vigorously for a minimum of 15 min. Plates were read on the Wallac Microbeta® 1450 plate reader.
Square root-transformed data were used for analysis of variance and calculation of IC50. SAS software (SAS Institute, Inc.) was used for all the statistical analysis.
Progesterone was used as a reference progestin and RU486 as a reference antiprogestin.

Molecules are shown by their SMILES. pKi: −log10 of the molar value.

Compound `C[C@@H]1COC(=O)N1c1nc(-c2ccc(Br)cc2)cs1` [Example 1, (4R)-3-[4-(4-Bromophenyl)-1,3-thiazol-2-yl]-4-methyl-1,3-oxazolidin-2-one] returned a melting point of 197 to 199 °C. Besides, in series [1], the IC50 amounted to 22.1 nM. The compound further had a pKi in series [2] of 7.06.
On to `C[C@@H]1COC(=O)N1c1nc(-c2ccc(C#N)cc2)cs1` [Example 2, 4-{2-[(4R)-4-Methyl-2-oxo-1,3-oxazolidin-3-yl]-1,3-thiazol-4-yl}benzonitrile], for which the melting point was 227 to 228 °C. Moreover, the IC50 in series [1] stood at 14.6 nM. Moreover, in series [2], the pKi was 7.36.
On the same counts, the results for `C[C@H]1COC(=O)N1c1nc(-c2ccc(Br)cc2)cs1` [Example 3, (4S)-3-[4-(4-Bromophenyl)-1,3-thiazol-2-yl]-4-methyl-1,3-oxazolidin-2-one] are 196 to 198 °C, 24.6 nM and 7.26.
On the same counts, the results for `C[C@H]1COC(=O)N1c1nc(-c2ccc(C#N)cc2)cs1` [Example 4, 4-{2-[(4S)-4-Methyl-2-oxo-1,3-oxazolidin-3-yl]-1,3-thiazol-4-yl}benzonitrile] are 205 to 207 °C, 15.8 nM and 7.20.
`CC1(C)COC(=O)N1c1nc(-c2ccc(Br)cc2)cs1` [Example 5, 3-[4-(4-Bromophenyl)-1,3-thiazol-2-yl]-4,4-dimethyl-1,3-oxazolidin-2-one] displayed a melting point of 165 to 167 °C. Moreover, in series [1], the IC50 worked out at 6.4 nM. This compound showed a pKi in series [2] of 7.42.
As to `CC[C@H]1COC(=O)N1c1nc(-c2ccc(Br)cc2)cs1` [Example 7, (4S)-3-[4-(4-Bromophenyl)-1,3-thiazol-2-yl]-4-ethyl-1,3-oxazolidin-2-one], the melting point lay within 138 to 140 °C. Further, the IC50 in series [1] was found to be 23 nM. This compound gave a pKi in series [2] of 7.12.
On the same counts, the results for `CC[C@H]1COC(=O)N1c1nc(-c2ccc(C#N)cc2)cs1` [Example 8, 4-{2-[(4S)-4-Ethyl-2-oxo-1,3-oxazolidin-3-yl]-1,3-thiazol-4-yl}benzonitrile] are 173 to 175 °C, 14.6 nM and 7.28.
For `O=C1OCC2(CCC2)N1c1nc(-c2ccc(Br)cc2)cs1` [Example 26, 5-[4-(4-Bromophenyl)-1,3-thiazol-2-yl]-7-oxa-5-azaspiro[3.4]octan-6-one], the IC50 in series [1] is 49.4 nM. Also, in series [2], the pKi is 7.04.
The compound `CC1(C)COC(=O)N1c1nc(-c2csc(C#N)c2)cs1` [Example 61, 4-[2-(4,4-Dimethyl-2-oxo-1,3-oxazolidin-3-yl)-1,3-thiazol-4-yl]thiophene-2-carbonitrile] yielded a melting point of 249 to 251.5 °C. The IC50 in series [1] was 37.8 nM.
`CC1OC(=O)N(c2nc(-c3ccc(C#N)cc3)cs2)C1(C)C` (stereo not drawn) [Example 62, 4-[2-(4,4,5-Trimethyl-2-oxo-1,3-oxazolidin-3-yl)-1,3-thiazol-4-yl]benzonitrile] showed a melting point of 166 to 167 °C. Also, the IC50 in series [1] was 1.8 nM.
Regarding `CC1(C)COC(=N)N1c1nc(-c2ccc(C#N)cc2)cs1` [Example 63, 4-[2-(2-imino-4,4-dimethyl-1,3-oxazolidin-3-yl)-1,3-thiazol-4-yl]benzonitrile], the melting point fell in the range of 158 to 161 °C. Besides, in series [1], the IC50 is 53.4 nM.
Compound `O=C1OCC(CC(F)(F)F)N1c1nc(-c2ccc(Br)cc2)cs1` (stereo not drawn) [Example 67, 3-[4-(4-Bromophenyl)-1,3-thiazol-2-yl]-4-(2,2,2-trifluoroethyl)-1,3-oxazolidin-2-one] showed a melting point of 163 to 165 °C. Further, the IC50 in series [1] amounted to 95.5 nM.
`N#Cc1ccc(-c2csc(N3C(=O)OC[C@@H]3CC(F)(F)F)n2)cc1` [Example 68, 4-{2-[(4S)-2-Oxo-4-(2,2,2-trifluoroethyl)-1,3-oxazolidin-3-yl]-1,3-thiazol-4-yl}benzonitrile] came in with a melting point of 235 to 238 °C. In addition, in series [1], the half-inhibitory concentration (IC50) came out at 29.1 nM.
On the same counts, the results for `N#Cc1ccc(-c2csc(N3C(=O)OC[C@H]3CC(F)(F)F)n2)cc1` [Example 69, 4-{2-[(4R)-2-Oxo-4-(2,2,2-trifluoroethyl)-1,3-oxazolidin-3-yl]-1,3-thiazol-4-yl}benzonitrile] are 235 to 238 °C and 63.8 nM.
For `COC(=O)[C@@H]1COC(=O)N1c1nc(-c2ccc(Br)cc2)cs1` [Example 70, Methyl (4S)-3-[4-(4-bromophenyl)-1,3-thiazol-2-yl]-2-oxo-1,3-oxazolidine-4-carboxylate], the melting point was in the range of 165 to 167 °C. Besides, in series [1] (% inhibition at 3000 nM), the inhibition at 3 µM turned out to be 90%.
In the case of `O=C1OC[C@@H](CO)N1c1nc(-c2ccc(Br)cc2)cs1` [Example 71, (4R)-3-[4-(4-Bromophenyl)-1,3-thiazol-2-yl]-4-(hydroxymethyl)-1,3-oxazolidin-2-one], the melting point lay in the range of 189 to 192 °C. In addition, the IC50 in series [1] was 565 nM.
Regarding `O=C1OC[C@@H](CCl)N1c1nc(-c2ccc(Br)cc2)cs1` [Example 72, (4S)-3-[4-(4-Bromophenyl)-1,3-thiazol-2-yl]-4-(chloromethyl)-1,3-oxazolidin-2-one], the IC50 in series [1] was found to be 5.4 nM. Also, the pKi in series [2] is 7.70.
On the same counts, the results for `CC1(C)OCC(=O)N1c1nc(-c2ccc(Br)cc2)cs1` [Example 77, 3-[4-(4-Bromophenyl)-1,3-thiazol-2-yl]-2,2-dimethyl-1,3-oxazolidin-4-one] are 372 nM and 6.23.
On the same counts, the results for `CC1(C)COC(=O)N1c1nc(-c2ccc(Br)cc2F)cs1` [Example 78, 3-[4-(4-Bromo-2-fluorophenyl)-1,3-thiazol-2-yl]-4,4-dimethyl-1,3-oxazolidin-2-one] are 24.8 nM and 7.34.
In the same order, the values of `CC1(C)COC(=O)N1c1nc(-c2ccc(C#N)cc2F)cs1` [Example 79, 4-[2-(4,4-Dimethyl-2-oxo-1,3-oxazolidin-3-yl)-1,3-thiazol-4-yl]-3-fluorobenzonitrile] are 31.6 nM and 6.77.
With `CC1(C)COC(=O)N1c1nc(-c2ccc([N+](=O)[O-])cc2)cs1` [Example 80, 4,4-Dimethyl-3-[4-(4-nitrophenyl)-1,3-thiazol-2-yl]-1,3-oxazolidin-2-one], the IC50 in series [1] turned out to be 8.6 nM. For the same compound, the pKi in series [2] was 7.46.
For `CC1(C)COC(=O)N1c1nc(-c2ccc(C#N)c(F)c2)cs1` [Example 81, 4-[2-(4,4-Dimethyl-2-oxo-1,3-oxazolidin-3-yl)-1,3-thiazol-4-yl]-2-fluorobenzonitrile], the IC50 in series [1] was 2.3 nM. In series [2], this compound gave a pKi of about 5.70.
